# Data reported in PubChem BioAssay AID250 (DTP/NCI, 2004).
# Values joined by “and” are separate entries in the source; they are usually repeats but may differ in a detail not shown here. Equal entries are not always repeated. Toxic doses and inconclusive results are not listed.
# Test system: BDF1 mice, L1210 leukemia sc, survival T/C
# Experiment: NCI In Vivo Anticancer Drug Screen. Data for tumor model L1210 Leukemia (subcutaneous) in B6D2F1 (BDF1) mice
# Details: endpoint: median survival time, higher = longer survival
# Summary of the method: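 Transplantable tumor-bearing mice; survival or tumor size recorded; result = T/C, treated vs vehicle control.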
smiles,measurement,setting,value
COc1ccc2cc1Oc1ccc(cc1)C[C@H]1c3cc(c(OC)cc3CCN1C)Oc1c(OC)c(OC)cc3c1[C@H](C2)N(C)CC3,T/C,"dose: 37.5 mg/kg/injection, schedule: Q01DX009 (sc), vehicle: methylcellulose (MC)",90 % of control
same,T/C,"dose: 37.5 mg/kg/injection, schedule: Q01DX009 (sc), vehicle: other",90 % of control
same,T/C,"dose: 39.0 mg/kg/injection, schedule: Q01DX009 (sc), vehicle: other",100 % of control and 103 % of control
same,T/C,"dose: 65.0 mg/kg/injection, schedule: Q01DX009 (sc), vehicle: other",100 % of control and 103 % of control
same,T/C,"dose: 75.0 mg/kg/injection, schedule: Q01DX009 (sc), vehicle: methylcellulose (MC)",90 % of control
same,T/C,"dose: 75.0 mg/kg/injection, schedule: Q01DX009 (sc), vehicle: other",92 % of control
same,T/C,"dose: 108.0 mg/kg/injection, schedule: Q01DX009 (sc), vehicle: other",94 % of control and 95 % of control
same,T/C,"dose: 150.0 mg/kg/injection, schedule: Q01DX009 (sc), vehicle: methylcellulose (MC)",95 % of control
same,T/C,"dose: 150.0 mg/kg/injection, schedule: Q01DX009 (sc), vehicle: other",96 % of control
same,T/C,"dose: 180.0 mg/kg/injection, schedule: Q01DX009 (sc), vehicle: other",97 % of control and 100 % of control
same,T/C,"dose: 300.0 mg/kg/injection, schedule: Q01DX009 (sc), vehicle: other",88 % of control and 91 % of control and 82 % of control
same,T/C,"dose: 600.0 mg/kg/injection, schedule: Q01DX009 (sc), vehicle: other",70 % of control
CCCCCCCCCCCCCCCC(=O)OCC1OC(n2ccc(N)nc2=O)C(O)C1O (stereo not drawn),T/C,"dose: 9.38 mg/kg/injection, schedule: Q01DX009 (ip), vehicle: saline",211 % of control
same,T/C,"dose: 9.38 mg/kg/injection, schedule: Q01DX009 (sc), vehicle: saline",177 % of control
same,T/C,"dose: 18.75 mg/kg/injection, schedule: Q01DX009 (ip), vehicle: saline",233 % of control
same,T/C,"dose: 18.75 mg/kg/injection, schedule: Q01DX009 (sc), vehicle: saline",233 % of control
same,T/C,"dose: 18.75 mg/kg/injection, schedule: Q04DX003 (sc), vehicle: saline",183 % of control
same,T/C,"dose: 37.5 mg/kg/injection, schedule: Q01DX001 (ip), vehicle: saline",155 % of control
same,T/C,"dose: 37.5 mg/kg/injection, schedule: Q01DX001 (sc), vehicle: saline",161 % of control
same,T/C,"dose: 37.5 mg/kg/injection, schedule: Q01DX009 (sc), vehicle: saline",188 % of control
same,T/C,"dose: 37.5 mg/kg/injection, schedule: Q04DX003 (ip), vehicle: saline",216 % of control
same,T/C,"dose: 37.5 mg/kg/injection, schedule: Q04DX003 (sc), vehicle: saline",233 % of control
same,T/C,"dose: 75.0 mg/kg/injection, schedule: Q01DX001 (ip), vehicle: saline",194 % of control
same,T/C,"dose: 75.0 mg/kg/injection, schedule: Q01DX001 (sc), vehicle: saline",95 % of control and 98 % of control and 233 % of control
same,T/C,"dose: 75.0 mg/kg/injection, schedule: Q01DX009 (sc), vehicle: saline",150 % of control
same,T/C,"dose: 75.0 mg/kg/injection, schedule: Q04DX003 (ip), vehicle: saline",227 % of control
same,T/C,"dose: 75.0 mg/kg/injection, schedule: Q04DX003 (sc), vehicle: saline",244 % of control
same,T/C,"dose: 150.0 mg/kg/injection, schedule: Q01DX001 (ip), vehicle: saline",255 % of control
same,T/C,"dose: 150.0 mg/kg/injection, schedule: Q01DX001 (sc), vehicle: saline",95 % of control and 98 % of control and 238 % of control
same,T/C,"dose: 150.0 mg/kg/injection, schedule: Q01DX009 (ip), vehicle: saline",122 % of control
same,T/C,"dose: 150.0 mg/kg/injection, schedule: Q04DX003 (ip), vehicle: saline",177 % of control
same,T/C,"dose: 150.0 mg/kg/injection, schedule: Q04DX003 (sc), vehicle: saline",150 % of control
same,T/C,"dose: 600.0 mg/kg/injection, schedule: Q01DX001 (ip), vehicle: saline",116 % of control
Nc1ccc(O)cc1,T/C,"dose: 130.0 mg/kg/injection, schedule: Q01DX Z (sc), vehicle: other",95 % of control
same,T/C,"dose: 216.0 mg/kg/injection, schedule: Q01DX Z (sc), vehicle: other",116 % of control
same,T/C,"dose: 300.0 mg/kg/injection, schedule: Q01DX Z (sc), vehicle: methylcellulose (MC)",112 % of control
same,T/C,"dose: 500.0 mg/kg/injection, schedule: Q01DX Z (sc), vehicle: methylcellulose (MC)",112 % of control
same,T/C,"dose: 600.0 mg/kg/injection, schedule: Q01DX Z (sc), vehicle: other",87 % of control
